Measured values as given in patent US8471005B2 (Cephalon, Inc., priority 2008, dated 2013).
Read-outs that look alike come from different tables or passages of the source.

Experiments:
ALK = biological target: T1, ALK (Homo sapiens, UniProt Q9UM73); assay: ALK Kinase Assay (ELISA/TRF, PLC-γ substrate); format: biochemical; details: read-out: ALK Potency
T1 construct: host or cells: baculovirus expression system
How it was run: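 First, plates are coated with substrate (phospholipase C-γ, 10 μg/mL, TBS). Next, 30 ng/ml ALK initiates phosphorylation for 15 min at 37° C. Then Eu-N1 PT66 antibody is added for detection, and a nonlinear dose-response fit of percent inhibition yields IC50.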

JAK2 = biological target: T2, JAK2 (Homo sapiens, UniProt O60674); assay: Recombinant Human JAK2 Kinase Assay (TRF); format: biochemical; details: read-out: JAK2 Potency
T2 construct: host or cells: baculovirus expression system
How it was run: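 Kinase activity of baculovirus-expressed JAK2 is followed on a surface-immobilised biotinylated peptide, with the reaction run for 20 min at room temperature in buffer containing 0.2 μM ATP and manganese. Phosphorylation is read with Eu-N1 PY100 antibody.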

[1] = ALK kinase inhibition, 1 μM ATP
[2] = JAK2 kinase inhibition, 0.2 μM ATP

T2 sequence (O60674 whole entry): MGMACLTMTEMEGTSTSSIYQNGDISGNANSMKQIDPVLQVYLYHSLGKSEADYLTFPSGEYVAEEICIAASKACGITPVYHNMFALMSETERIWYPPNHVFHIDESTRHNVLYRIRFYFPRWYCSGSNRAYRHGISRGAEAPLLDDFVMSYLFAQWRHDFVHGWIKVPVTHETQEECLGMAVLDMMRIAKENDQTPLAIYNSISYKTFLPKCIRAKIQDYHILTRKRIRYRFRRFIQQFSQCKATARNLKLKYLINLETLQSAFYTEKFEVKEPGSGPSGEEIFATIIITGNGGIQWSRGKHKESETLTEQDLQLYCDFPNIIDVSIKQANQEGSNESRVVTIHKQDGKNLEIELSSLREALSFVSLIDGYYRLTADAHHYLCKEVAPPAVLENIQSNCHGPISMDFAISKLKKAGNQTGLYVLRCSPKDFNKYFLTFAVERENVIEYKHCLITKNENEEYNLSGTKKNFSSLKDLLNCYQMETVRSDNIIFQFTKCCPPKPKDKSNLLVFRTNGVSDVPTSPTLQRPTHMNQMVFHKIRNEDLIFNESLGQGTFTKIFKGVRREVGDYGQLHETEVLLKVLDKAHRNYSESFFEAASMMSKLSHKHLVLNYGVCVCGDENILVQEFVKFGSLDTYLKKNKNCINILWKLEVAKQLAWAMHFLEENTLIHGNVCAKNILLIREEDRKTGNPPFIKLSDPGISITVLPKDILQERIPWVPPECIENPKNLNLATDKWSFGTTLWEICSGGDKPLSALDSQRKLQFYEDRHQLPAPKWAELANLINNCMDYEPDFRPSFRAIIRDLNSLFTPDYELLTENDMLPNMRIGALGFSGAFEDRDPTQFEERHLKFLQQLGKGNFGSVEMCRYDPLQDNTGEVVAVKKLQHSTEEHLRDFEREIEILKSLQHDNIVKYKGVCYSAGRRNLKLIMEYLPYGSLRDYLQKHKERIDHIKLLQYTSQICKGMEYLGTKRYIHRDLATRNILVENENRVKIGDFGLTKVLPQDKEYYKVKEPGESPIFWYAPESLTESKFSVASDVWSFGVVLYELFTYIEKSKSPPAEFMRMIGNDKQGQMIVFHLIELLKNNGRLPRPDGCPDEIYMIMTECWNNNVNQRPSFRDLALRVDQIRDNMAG
T1 sequence (Q9UM73 19-1620): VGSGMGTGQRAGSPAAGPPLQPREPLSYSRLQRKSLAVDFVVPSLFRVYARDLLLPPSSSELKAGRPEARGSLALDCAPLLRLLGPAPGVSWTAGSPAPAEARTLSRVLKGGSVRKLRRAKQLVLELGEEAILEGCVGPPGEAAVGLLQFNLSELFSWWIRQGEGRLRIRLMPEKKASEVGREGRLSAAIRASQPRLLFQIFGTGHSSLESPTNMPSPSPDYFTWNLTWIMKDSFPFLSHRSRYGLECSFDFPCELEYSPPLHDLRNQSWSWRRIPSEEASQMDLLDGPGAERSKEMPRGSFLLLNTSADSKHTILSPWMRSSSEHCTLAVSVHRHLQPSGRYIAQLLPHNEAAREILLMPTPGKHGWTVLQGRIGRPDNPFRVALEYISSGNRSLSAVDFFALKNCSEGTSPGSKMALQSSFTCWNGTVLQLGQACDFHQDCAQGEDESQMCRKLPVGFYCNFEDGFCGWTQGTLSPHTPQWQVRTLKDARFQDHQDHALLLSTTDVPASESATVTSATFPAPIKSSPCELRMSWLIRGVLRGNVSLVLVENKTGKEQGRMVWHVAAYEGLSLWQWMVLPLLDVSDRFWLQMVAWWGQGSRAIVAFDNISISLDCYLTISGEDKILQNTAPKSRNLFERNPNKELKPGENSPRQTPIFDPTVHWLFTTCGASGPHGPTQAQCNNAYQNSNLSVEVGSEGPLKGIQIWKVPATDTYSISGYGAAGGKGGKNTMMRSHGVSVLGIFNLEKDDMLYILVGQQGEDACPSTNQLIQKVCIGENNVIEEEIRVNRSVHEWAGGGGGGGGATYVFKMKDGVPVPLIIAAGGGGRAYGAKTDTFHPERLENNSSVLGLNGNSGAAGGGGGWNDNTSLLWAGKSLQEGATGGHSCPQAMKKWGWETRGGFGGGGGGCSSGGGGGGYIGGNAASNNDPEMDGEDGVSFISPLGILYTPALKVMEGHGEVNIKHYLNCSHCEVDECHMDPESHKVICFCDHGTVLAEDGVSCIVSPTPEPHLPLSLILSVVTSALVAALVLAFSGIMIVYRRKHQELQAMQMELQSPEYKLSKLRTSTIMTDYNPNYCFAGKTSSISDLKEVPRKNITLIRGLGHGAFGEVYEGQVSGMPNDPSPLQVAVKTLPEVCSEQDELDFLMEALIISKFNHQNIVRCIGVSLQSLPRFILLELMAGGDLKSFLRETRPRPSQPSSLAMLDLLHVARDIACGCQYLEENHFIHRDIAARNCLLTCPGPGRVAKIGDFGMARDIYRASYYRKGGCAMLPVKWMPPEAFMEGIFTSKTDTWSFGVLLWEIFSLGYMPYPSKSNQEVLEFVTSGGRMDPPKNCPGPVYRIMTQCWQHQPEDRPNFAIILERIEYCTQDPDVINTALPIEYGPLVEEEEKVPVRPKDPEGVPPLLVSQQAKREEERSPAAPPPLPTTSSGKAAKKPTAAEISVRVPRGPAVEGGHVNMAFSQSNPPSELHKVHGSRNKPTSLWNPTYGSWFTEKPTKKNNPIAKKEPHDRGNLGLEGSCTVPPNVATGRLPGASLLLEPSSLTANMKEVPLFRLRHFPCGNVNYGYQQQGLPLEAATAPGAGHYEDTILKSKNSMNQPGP

[7-(4-Methanesulfonyl-phenyl)-pyrrolo[2,1-f][1,2,4]triazin-2-yl]-(4-morpholin-4-yl-phenyl)-amine [Example 38]
IC50 (ALK; ALK Kinase Inhibition): 100 to 1000 nM | IC50 (JAK2; JAK2 Kinase Inhibition): < 100 nM

COc1ccccc1-c1ccc2cnc(Nc3ccc4c(c3)C(=O)CC3(CCN(C)CC3)O4)nn12 [Example 376]
IC50 (ALK; ALK Kinase Inhibition): 100 to 1000 nM | IC50 (JAK2; JAK2 Kinase Inhibition): < 100 nM

CS(=O)(=O)Nc1cccc(-c2ccc3cnc(Nc4cccc(N5CCOCC5)c4)nn23)c1 [Example 183, N-{3-[2-(3-Morpholin-4-yl-phenylamino)-pyrrolo[2,1-f][1,2,4]triazin-7-yl]-phenyl}-methanesulfonamide]
IC50 (ALK; ALK Kinase Inhibition): 100 to 1000 nM | IC50 (JAK2; JAK2 Kinase Inhibition): < 100 nM

CN1CCN(c2ccc(Nc3ncc4cc(-c5ccccc5OCC#N)cn4n3)cc2)CC1 [Example 1155, (2-{2-[4-(4-Methyl-piperazin-1-yl)-phenylamino]-pyrrolo[2,1-f][1,2,4]triazin-6-yl}-phenoxy)-acetonitrile]
IC50 (ALK; [1]): 1000 to 10000 nM | IC50 (JAK2; [2]): 100 to 1000 nM

COc1ccc(-c2ccc3cnc(Nc4ccc(N5CCOCC5)nc4)nn23)cn1 [Example 1106]
IC50 (ALK; [1]): 1000 to 10000 nM | IC50 (JAK2; [2]): < 100 nM

CN1CCC(c2ccc(Nc3ncc4ccc(-c5cccc(S(=O)(=O)N(C)C)c5)n4n3)cc2)CC1 [Example 902, N,N-Dimethyl-3-{2-[4-(1-methyl-piperidin-4-yl)phenylamino]-pyrrolo[2,1-f][1,2,4]triazin-7-yl}-benzenesulfonamide]
IC50 (ALK; [1]): 100 to 1000 nM | IC50 (JAK2; [2]): < 100 nM

C[C@H](O)CN1CCN(c2ccc(Nc3ncc4ccc(-c5ccc(S(C)(=O)=O)cc5)n4n3)cc2)CC1 [Example 205, (S)-1-(4-{4-[7-(4-Methanesulfonyl-phenyl)-pyrrolo[2,1-f][1,2,4]triazin-2-ylamino]-phenyl}-piperazin-1-yl)-propan-2-ol]
IC50 (ALK; ALK Kinase Inhibition): 100 to 1000 nM | IC50 (JAK2; JAK2 Kinase Inhibition): < 100 nM

CCN(CC)C1CCN(c2ccc(Nc3ncc4ccc(-c5cnn(C)c5)n4n3)cc2)CC1 [Example 1207, [4-(4-Diethylamino-piperidin-1-yl)-phenyl]-[7-(1-methyl-1H-pyrazol-4-yl)-pyrrolo[2,1-f][1,2,4]triazin-2-yl]-amine]
IC50 (ALK; [1]): 100 to 1000 nM | IC50 (JAK2; [2]): < 100 nM

CN1CCC(c2ccc(Nc3ncc4ccc(-c5cnn(CCC#N)c5)n4n3)cc2)CC1 [Example 932, 3-(4-{2-[4-(1-Methyl-piperidin-4-yl)-phenylamino]-pyrrolo[2,1-f][1,2,4]triazin-7-yl}-pyrazol-1-yl)-propionitrile]
IC50 (ALK; [1]): 100 to 1000 nM | IC50 (JAK2; [2]): < 100 nM

CC(=O)Nc1cc(Nc2ncc3ccc(-c4cccnc4)n3n2)ccc1C(C)(C)C [Example 308, N-[2-tert-Butyl-5-(7-pyridin-3-yl-pyrrolo[2,1-f][1,2,4]triazin-2-ylamino)-phenyl]-acetamide]
IC50 (ALK; ALK Kinase Inhibition): 100 to 1000 nM | IC50 (JAK2; JAK2 Kinase Inhibition): < 100 nM

Cc1cc(Nc2ncc3ccc(-c4ccccc4N(C)S(C)(=O)=O)n3n2)cc2oc(=O)[nH]c12 [Example 628, N-Methyl-N-{2-[2-(4-methyl-2-oxo-2,3-dihydrobenzooxazol-6-ylamino)-pyrrolo[2,1-f][1,2,4]triazin-7-yl]phenyl}methanesulfonamide]
IC50 (ALK; [1]): 100 to 1000 nM | IC50 (JAK2; [2]): < 100 nM

CC(C)(C)NS(=O)(=O)c1cccc(-c2ccc3cnc(Nc4ccc5cnn(CCN6CCOCC6)c5c4)nn23)c1 [Example 1324, N-tert-Butyl-3-{2-[1-(2-morpholin-4-yl-ethyl)-1H-indazol-6-ylamino]-pyrrolo[2,1-f][1,2,4]triazin-7-yl}-benzenesulfonamide]
IC50 (ALK; [1]): 1000 to 10000 nM | IC50 (JAK2; [2]): < 100 nM

Cc1cc(Nc2ncc3ccc(-c4cccc(S(=O)(=O)NC(C)(C)C)c4)n3n2)ccc1C1CCN(CC(N)=O)CC1 [Example 938, 2-(4-{4-[7-(3-tert-Butylsulfamoyl-phenyl)-pyrrolo[2,1-f][1,2,4]triazin-2-ylamino]-2-methyl-phenyl}-piperidin-1-yl)-acetamide]
IC50 (ALK; [1]): < 100 nM | IC50 (JAK2; [2]): < 100 nM
